Measurements from patent US9249145B2, “Heterocyclic derivatives of pyrazol-4-yl-pyrrolo[2,3-d]pyrimidines as janus kinase inhibitors” (Incyte Holdings Corporation, priority 2009, dated 2016).
Counter-ions that a name gives are not always drawn.

Key:
[1] = target: T1, human JAK1 (a.a. 837-1142) (Homo sapiens, UniProt P23458); experiment: In vitro JAK kinase assay (HTRF, phosphorylation of biotinylated peptide), JAK1; assay type: biochemical; conditions: 1 mM ATP; Examples 12-91; read-out: JAK1 IC50 (nM) @ 1 mM ATP
T1 construct: The catalytic domains of human JAK1 (a.a. 837-1142); His tag (N); made in house; host or cells: insect cells (baculovirus)
T1 sequence (P23458 849-1154): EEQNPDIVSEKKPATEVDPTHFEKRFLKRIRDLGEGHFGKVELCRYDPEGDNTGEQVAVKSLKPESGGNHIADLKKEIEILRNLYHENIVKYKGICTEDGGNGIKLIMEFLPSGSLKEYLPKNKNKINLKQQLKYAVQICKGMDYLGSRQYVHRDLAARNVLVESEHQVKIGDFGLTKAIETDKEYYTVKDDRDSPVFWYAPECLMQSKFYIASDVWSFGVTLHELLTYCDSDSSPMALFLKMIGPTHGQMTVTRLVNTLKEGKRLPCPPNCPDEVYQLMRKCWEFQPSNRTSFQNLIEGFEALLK
Procedure: (§1) Compounds herein were tested for inhibitory activity of JAK targets according to the following in vitro assay described in Park et al., Analytical Biochemistry 1999, 269, 94-104. The catalytic domains of human JAK1 (a.a. 837-1142), Jak2 (a.a. 828-1132) and Jak3 (a.a. 781-1124) with an N-terminal His tag were expressed using baculovirus in insect cells and purified. The catalytic activity of JAK1, JAK2 or JAK3 was assayed by measuring the phosphorylation of a biotinylated peptide. The phosphorylated peptide was detected by homogenous time resolved fluorescence (HTRF). IC50s of compounds were measured for each kinase in the 40 microL reactions that contain the enzyme, ATP and 500 nM peptide in 50 mM Tris (pH 7.8) buffer with 100 mM NaCl, 5 mM DTT, and 0.1 mg/mL (0.01%) BSA. The ATP concentration in the reactions was 90 μM for Jak1, 30 μM for Jak2 and 3 μM for Jak3 for Km conditions. For the 1 mM IC50 measurements, ATP concentration in the reactions was 1 mM. Reactions were carried out at room temperature for 1 hr and then stopped with 20 μL 45 mM EDTA, 300 nM SA-APC, 6 nM Eu-Py20 in assay buffer (Perkin Elmer, Boston, Mass.). Binding to the Europium labeled antibody took place for 40 minutes and HTRF signal was measured on a Fusion plate reader (Perkin Elmer, Boston, Mass.). See Tables 1, 2, 3, and 4 for data related to compounds of the invention.

Jak2 (a.a. 828-1132) = target: T2, Jak2 (a.a. 828-1132) (Homo sapiens, UniProt O60674); experiment: In vitro JAK kinase assay (HTRF, phosphorylation of biotinylated peptide), JAK2; assay type: biochemical; conditions: 1 mM ATP; Examples 12-91; read-out: JAK2 IC50 (nM) @ 1 mM ATP
T2 construct: Jak2 (a.a. 828-1132); His tag (N); made in house; host or cells: insect cells (baculovirus)
T2 sequence (O60674 828-1132): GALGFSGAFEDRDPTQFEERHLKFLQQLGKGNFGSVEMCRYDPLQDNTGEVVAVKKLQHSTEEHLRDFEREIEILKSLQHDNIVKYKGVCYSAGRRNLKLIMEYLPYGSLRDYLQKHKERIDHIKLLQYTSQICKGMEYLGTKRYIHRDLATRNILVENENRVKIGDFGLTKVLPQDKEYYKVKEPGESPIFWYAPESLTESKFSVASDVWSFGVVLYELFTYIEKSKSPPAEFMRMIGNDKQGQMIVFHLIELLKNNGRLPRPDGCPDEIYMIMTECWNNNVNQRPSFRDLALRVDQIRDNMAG
Procedure: as §1

| IC50 [1] [nM] | IC50 (Jak2 (a.a. 828-1132)) [nM] | SMILES |
| --- | --- | --- |
| < 10 | < 10 | N#CCC(CN1CCN(C(=O)c2c(F)cc(F)cc2F)CC1)n1cc(-c2ncnc3[nH]ccc23)cn1 (centres unmarked) [Example 29, 3-(4-(7H-pyrrolo[2,3-d]pyrimidin-4-yl)-1H-pyrazol-1-yl)-4-(4-(2,4,6-trifluorobenzoyl)piperazin-1-yl)butanenitrile] |
| < 10 | < 10 | N#CCC(CN1CCN(C(=O)c2ccc(F)cc2F)CC1)n1cc(-c2ncnc3[nH]ccc23)cn1 (centres unmarked) [Example 30, 3-(4-(7H-pyrrolo[2,3-d]pyrimidin-4-yl)-1H-pyrazol-1-yl)-4-(4-(2,4-difluorobenzoyl)piperazin-1-yl)butanenitrile] |
| < 10 | 10 to 50 | N#CCC(CN1CCN(C(=O)c2ccc(F)cc2)CC1)n1cc(-c2ncnc3[nH]ccc23)cn1 (centres unmarked) [Example 36, 3-(4-(7H-pyrrolo[2,3-d]pyrimidin-4-yl)-1H-pyrazol-1-yl)-4-(4-(4-fluorobenzoyl)piperazin-1-yl)butanenitrile] |
| < 10 | 10 to 50 | N#CCC(CN1CCN(C(=O)c2ccc(F)cc2Cl)CC1)n1cc(-c2ncnc3[nH]ccc23)cn1 (centres unmarked) [Example 39, 3-(4-(7H-pyrrolo[2,3-d]pyrimidin-4-yl)-1H-pyrazol-1-yl)-4-(4-(2-chloro-4-fluorobenzoyl)piperazin-1-yl)butanenitrile] |
| < 10 | 10 to 50 | N#CCC(CN1CCN(C(=O)c2ncc(F)cc2F)CC1)n1cc(-c2ncnc3[nH]ccc23)cn1 (centres unmarked) [Example 40, 3-(4-(7H-pyrrolo[2,3-d]pyrimidin-4-yl)-1H-pyrazol-1-yl)-4-(4-(3,5-difluoropicolinoyl)piperazin-1-yl)butanenitrile] |
| < 10 | 10 to 50 | N#CCC(CN1CCN(C(=O)c2cc(OC(F)(F)F)ccc2F)CC1)n1cc(-c2ncnc3[nH]ccc23)cn1 (centres unmarked) [Example 41, 3-(4-(7H-pyrrolo[2,3-d]pyrimidin-4-yl)-1H-pyrazol-1-yl)-4-(4-(2-fluoro-5-(trifluoromethoxy)benzoyl)piperazin-1-yl)butanenitrile] |
| < 10 | 10 to 50 | N#CCC(CN1CCN(C(=O)c2ccc(C(F)(F)F)cc2F)CC1)n1cc(-c2ncnc3[nH]ccc23)cn1 (centres unmarked) [Example 45, 3-(4-(7H-pyrrolo[2,3-d]pyrimidin-4-yl)-1H-pyrazol-1-yl)-4-(4-(2-fluoro-4-(trifluoromethyl)benzoyl)piperazin-1-yl)butanenitrile trifluoroacetate salt] |
| < 10 | 10 to 50 | N#CCC(CN1CCN(C(=O)c2cc(F)cc(Cl)c2)CC1)n1cc(-c2ncnc3[nH]ccc23)cn1 (centres unmarked) [Example 46, 3-(4-(7H-pyrrolo[2,3-d]pyrimidin-4-yl)-1H-pyrazol-1-yl)-4-(4-(3-chloro-5-fluorobenzoyl)piperazin-1-yl)butanenitrile trifluoroacetate salt] |
| 10 to 50 | 50 to 100 | N#CCC(CN1CCN(C(=O)c2cc(Cl)cc(OC(F)(F)F)c2)CC1)n1cc(-c2ncnc3[nH]ccc23)cn1 (centres unmarked) [Example 53, 3-(4-(7H-pyrrolo[2,3-d]pyrimidin-4-yl)-1H-pyrazol-1-yl)-4-(4-(3-chloro-5-(trifluoromethoxy)benzoyl)piperazin-1-yl)butanenitrile] |

Second part, the compound before the results:

| SMILES | IC50 [1] [nM] | IC50 (Jak2 (a.a. 828-1132)) [nM] |
| --- | --- | --- |
| N#CCC(CN1CCN(C(=O)c2ccc(O)cc2F)CC1)n1cc(-c2ncnc3[nH]ccc23)cn1 (centres unmarked) [Example 31, 3-(4-(7H-pyrrolo[2,3-d]pyrimidin-4-yl)-1H-pyrazol-1-yl)-4-(4-(2-fluoro-4-hydroxybenzoyl)piperazin-1-yl)butanenitrile trifluoroacetate salt] | < 10 | 10 to 50 |
| N#CCC(CN1CCN(C(=O)c2cc(C(F)(F)F)ccc2F)CC1)n1cc(-c2ncnc3[nH]ccc23)cn1 (centres unmarked) [Example 32, 3-(4-(7H-pyrrolo[2,3-d]pyrimidin-4-yl)-1H-pyrazol-1-yl)-4-(4-(2-fluoro-5-(trifluoromethyl)benzoyl)piperazin-1-yl)butanenitrile] | < 10 | < 10 |
| N#CCC(CN1CCN(C(=O)c2cccc(F)c2F)CC1)n1cc(-c2ncnc3[nH]ccc23)cn1 (centres unmarked) [Example 33, 3-(4-(7H-pyrrolo[2,3-d]pyrimidin-4-yl)-1H-pyrazol-1-yl)-4-(4-(2,3-difluorobenzoyl)piperazin-1-yl)butanenitrile] | < 10 | < 10 |
| COc1ccc(C(=O)N2CCN(CC(CC#N)n3cc(-c4ncnc5[nH]ccc45)cn3)CC2)c(F)c1F (centres unmarked) [Example 34, 3-(4-(7H-pyrrolo[2,3-d]pyrimidin-4-yl)-1H-pyrazol-1-yl)-4-(4-(2,3-difluoro-4-methoxybenzoyl)piperazin-1-yl)butanenitrile] | < 10 | 10 to 50 |
| N#CCC(CN1CCN(C(=O)c2c(O)cccc2F)CC1)n1cc(-c2ncnc3[nH]ccc23)cn1 (centres unmarked) [Example 35, 3-(4-(7H-pyrrolo[2,3-d]pyrimidin-4-yl)-1H-pyrazol-1-yl)-4-(4-(2-fluoro-6-hydroxybenzoyl)piperazin-1-yl)butanenitrile] | < 10 | < 10 |
| Cc1cc(C(=O)N2CCN(CC(CC#N)n3cc(-c4ncnc5[nH]ccc45)cn3)CC2)ccc1F (centres unmarked) [Example 37, 3-(4-(7H-pyrrolo[2,3-d]pyrimidin-4-yl)-1H-pyrazol-1-yl)-4-(4-(4-fluoro-3-methylbenzoyl)piperazin-1-yl)butanenitrile] | < 10 | 10 to 50 |
| N#CCC(CN1CCN(C(=O)c2ccc(Cl)cn2)CC1)n1cc(-c2ncnc3[nH]ccc23)cn1 (centres unmarked) [Example 38, 3-(4-(7H-pyrrolo[2,3-d]pyrimidin-4-yl)-1H-pyrazol-1-yl)-4-(4-(5-chloropicolinoyl)piperazin-1-yl)butanenitrile] | < 10 | 10 to 50 |
| N#CCC(CN1CCN(C(=O)c2cccs2)CC1)n1cc(-c2ncnc3[nH]ccc23)cn1 (centres unmarked) [Example 42, 3-(4-(7H-pyrrolo[2,3-d]pyrimidin-4-yl)-1H-pyrazol-1-yl)-4-(4-(thiophene-2-carbonyl)piperazin-1-yl)butanenitrile] | < 10 | 10 to 50 |
| COc1cc(C(=O)N2CCN(CC(CC#N)n3cc(-c4ncnc5[nH]ccc45)cn3)CC2)ccc1F (centres unmarked) [Example 43, 3-(4-(7H-pyrrolo[2,3-d]pyrimidin-4-yl)-1H-pyrazol-1-yl)-4-(4-(4-fluoro-3-methoxybenzoyl)piperazin-1-yl)butanenitrile] | < 10 | 10 to 50 |
| COc1ccc(C(=O)N2CCN(CC(CC#N)n3cc(-c4ncnc5[nH]ccc45)cn3)CC2)cc1Cl (centres unmarked) [Example 44, 3-(4-(7H-pyrrolo[2,3-d]pyrimidin-4-yl)-1H-pyrazol-1-yl)-4-(4-(3-chloro-4-methoxybenzoyl)piperazin-1-yl)butanenitrile trifluoroacetate salt] | < 10 | 10 to 50 |
| Cc1cc(F)ccc1C(=O)N1CCN(CC(CC#N)n2cc(-c3ncnc4[nH]ccc34)cn2)CC1 (centres unmarked) [Example 47, 3-(4-(7H-pyrrolo[2,3-d]pyrimidin-4-yl)-1H-pyrazol-1-yl)-4-(4-(4-fluoro-2-methylbenzoyl)piperazin-1-yl)butanenitrile] | < 10 | 10 to 50 |
| N#CCC(CN1CCN(C(=O)c2ccc(F)c(F)c2F)CC1)n1cc(-c2ncnc3[nH]ccc23)cn1 (centres unmarked) [Example 48, 3-(4-(7H-pyrrolo[2,3-d]pyrimidin-4-yl)-1H-pyrazol-1-yl)-4-(4-(2,3,4-trifluorobenzoyl)piperazin-1-yl)butanenitrile phosphate salt] | < 10 | 10 to 50 |
| N#CCC(CN1CCN(C(=O)c2ccc(F)c(OC(F)(F)F)c2)CC1)n1cc(-c2ncnc3[nH]ccc23)cn1 (centres unmarked) [Example 49, 3-(4-(7H-pyrrolo[2,3-d]pyrimidin-4-yl)-1H-pyrazol-1-yl)-4-(4,-(4-fluoro-3-(trifluoromethoxy)benzoyl)piperazin-1-yl)butanenitrile] | 10 to 50 | > 100 |
| N#CCC(CN1CCN(C(=O)c2ccc(F)c(F)c2)CC1)n1cc(-c2ncnc3[nH]ccc23)cn1 (centres unmarked) [Example 50, 3-(4-(7H-pyrrolo[2,3-d]pyrimidin-4-yl)-1H-pyrazol-1-yl)-4-(4-(3,4-difluorobenzoyl)piperazin-1-yl)butanenitrile] | 10 to 50 | 10 to 50 |
| N#CCC(CN1CCN(C(=O)c2cccc(OC(F)(F)F)c2F)CC1)n1cc(-c2ncnc3[nH]ccc23)cn1 (centres unmarked) [Example 51, 3-(4-(7H-pyrrolo[2,3-d]pyrimidin-4-yl)1H-pyrazol-1-yl)-4-(4-(2-fluoro-3-(trifluoromethoxy)benzoyl)piperazin-1-yl)butanenitrile] | 10 to 50 | 10 to 50 |
| COc1cscc1C(=O)N1CCN(CC(CC#N)n2cc(-c3ncnc4[nH]ccc34)cn2)CC1 (centres unmarked) [Example 52, 3-(4-(7H-pyrrolo[2,3-d]pyrimidin-4-yl)-1H-pyrazol-1-yl)-4-(4-(4-methoxythiophene-3-carbonyl)piperazin-1-yl)butanenitrile] | 10 to 50 | 50 to 100 |
